Measurements from the METLIN SMRT retention time set (Domingo-Almenara et al. 2019).

Assay: gradient 5% acetonitrile 3 min, to 50% in 2 min, to 85% in 15 min, held 3 min, 100 µL/min
Conditions: column: Zorbax Extend-C18 2.1 x 50 mm; eluents: water / acetonitrile, 0.1% formic acid
Summary of the method: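 Pure standards were run in mixtures of ~100 molecules by HPLC coupled to a quadrupole time-of-flight mass spectrometer. The column was a Zorbax Extend-C18 (2.1 × 50 mm, 1.8 μm) at 100 μL/min, with water and acetonitrile each containing 0.1% formic acid, in positive and negative ionization mode. Dead and dwell volumes were 40 μL and 900 μL. Retention time was taken from computationally picked adduct peaks, each manually inspected, with data collected over 3 months.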

| Structure (SMILES) | RP-LC retention time |
| --- | --- |
| O=C1COc2ccccc2N1Cc1nc(-c2ccc(OC(F)(F)F)cc2)no1 | 1100 s |
| Cc1nnc(N2CCCC(C(=O)NCCN3CCOCC3)C2)c2nn(-c3ccc(Cl)cc3)c(C)c12 (stereo not given) | 590 s |
| Cc1nc(-c2noc(-c3ccccc3)n2)cn1CC(=O)N1CCN(c2ccccc2F)CC1 | 894 s |
| CCN1CCn2cc(S(=O)(=O)Nc3cccc(C#N)c3)cc2C1=O | 680 s |
| CS(=O)(=O)N1CCC(C(=O)NCC(O)c2ccc(C(F)(F)F)cc2)CC1 (stereo not given) | 652 s |
| COc1ccc(-c2ccnc3nc(-c4ccco4)nn23)c(F)c1 | 819 s |
| Cc1noc(-c2nn(C)c3c2CN(C(=O)C2CCCO2)CC3)n1 (stereo not given) | 600 s |
| COc1ccccc1NC(=O)CSc1nc2c(-c3ccccc3)csc2c(=O)n1C | 960 s |
| CCn1cnc2ccc(-c3noc(-c4ccc(C)cc4)n3)cc21 | 832 s |
| CN(C)S(=O)(=O)N1CCCC(c2nc(-c3cccnc3)no2)CCNC(=O)CC1 (stereo not given) | 641 s |
| Cc1ccc(C)c2sc(N(C)CC(=O)NCCn3nc(-c4ccco4)ccc3=O)nc12 | 784 s |
| O=c1c2nnc3ccnn3c2ccn1CCc1c[nH]c2ccccc12 | 700 s |
| CC(=O)N1CCc2cc(-c3ccc(C(=O)NCCc4cccs4)cc3)ccc21 | 843 s |
| COc1cc(NC(=O)c2c(S(=O)(=O)Nc3ccc(Cl)cc3)n[nH]c2C)cc(OC)c1 | 886 s |
| Cc1cccc(C2CCCN2C(=O)c2c(Cl)cnn2C)c1 (stereo not given) | 891 s |
| CCOc1ccc(N(CC)C(=O)C(=O)c2c[nH]c3ccccc23)cc1 | 852 s |
| COc1ccc(Cl)c2c(=O)c3c([nH]c12)CCN(CC(=O)NCc1ccc(Cl)cc1)C3 | 762 s |
| CC(=O)Nc1ccc(C(=O)NCCNC(=O)Nc2cccs2)cc1 | 600 s |
| Cc1ccccc1C(=O)Nc1nnc(SCc2nnc(-c3ccccc3C)o2)s1 | 948 s |
| O=C(NCc1csc(-c2ccccc2)n1)C1CCN(C(=O)c2ccc(F)c(F)c2)CC1 | 814 s |
| Cc1ccc(CNC(=O)C2(C)CN(S(=O)(=O)c3ccccc3)CC(=O)N2c2cccc(F)c2)cc1 (stereo not given) | 962 s |
| O=C(Cn1ccc2sccc2c1=O)Nc1cccc(C(F)(F)F)c1 | 834 s |
| CCOc1ccc(NS(=O)(=O)c2cc(C(=O)N3CCN(c4ccccc4OC)CC3)n[nH]2)cc1 | 846 s |

| Structure (SMILES) | RP-LC retention time |
| --- | --- |
| CN(C)c1cccc(C(=O)N2CCN(c3cc(-c4ccc(Cl)cc4)[nH]n3)CC2)c1 | 820 s |
| CCOc1cc2c(cc1OCC)C1C(C(=O)Nc3cccnc3)c3ccccc3C(=O)N1CC2 (stereo not given) | 611 s |
| O=S(=O)(NCc1ccc(F)cc1)c1ccccc1-c1nc(-c2cccc(F)c2)no1 | 1150 s |
| Cc1cc(C(=O)Nc2ccc(C)c(F)c2)n(CC(=O)Nc2ccc(F)cc2)n1 | 922 s |
| O=C(NC1CCN(c2cc(-c3ccc(Cl)cc3)[nH]n2)C1)c1ccc(Br)cc1 (stereo not given) | 913 s |
| CON=C(C(=O)NC1C(=O)N2C(C(=O)O)=C(CSc3nc(C)c(CC(=O)O)s3)CSC12)c1csc(N)n1 (stereo not given) | 629 s |
| CCc1ccc(C(C)NC(=O)c2cccc(C3CCCN(C(=O)NC(C)C)C3)c2)cc1 (stereo not given) | 1010 s |
| O=C(COc1ncccn1)NC1CCCCC1 | 624 s |
| CCc1ccc(NS(=O)(=O)c2cc3c(s2)CCN(C(=O)C2CC2)C3)cc1 | 864 s |
| Cc1cc(C)n(CCNC(=O)C2(c3cccs3)CCCC2)n1 | 736 s |
| O=C(NCc1ccccc1)NCC1CCOCC1 | 651 s |
| Nc1cc(C2CCN(S(=O)(=O)c3cccc4cccnc34)CC2)no1 | 702 s |
| Clc1ccc(-c2ccc(CNCc3ccco3)o2)c(Cl)c1 | 743 s |
| COc1ccc(C2(CNS(=O)(=O)c3ccc(OC)c(Cl)c3)CCOCC2)cc1 | 842 s |
| CCCNC(=O)C1CCCN(c2nc3ncn(CC(=O)NCc4ccc(C)cc4)c(=O)c3s2)C1 (stereo not given) | 715 s |
| CS(=O)(=O)N1CCC(c2nnc(-c3ccco3)s2)CC1 | 655 s |
| O=c1c2scc(-c3cccc(F)c3)c2ncn1Cc1cc(=O)n2ccccc2n1 | 809 s |
| Clc1ccccc1-c1csc(Nc2ccccn2)n1 | 960 s |
| Cc1ccsc1C(=O)N1CCC2(CC1)NC(=O)N(Cc1ccccc1Cl)C2=O | 847 s |
| CC(=O)Nc1ccc(S(=O)(=O)N2CCn3cccc3C2c2ccc(F)c(F)c2)cc1 (stereo not given) | 857 s |
| COC(=O)c1c(NCc2ccc(OC)c(OC)c2)c2cccc(Cl)c2[nH]c1=O | 736 s |
| O=C1CC(C(F)(F)F)c2c(c(C(=O)O)cn2-c2cccc(Br)c2)N1 (stereo not given) | 795 s |
| O=C(NCC1CC1)c1cccc(OC2CN(Cc3cc4ccccc4nc3Cl)C2)c1 | 667 s |

| Structure (SMILES) | RP-LC retention time |
| --- | --- |
| COCCn1cc(CCNC(=O)Nc2ccc(F)c(Cl)c2)c2cccnc21 | 783 s |
| CCn1cnc(S(=O)(=O)N2CCC(C(=O)NCc3cccc(C)c3)CC2)c1 | 721 s |
| COc1ccc(OC)c(CCNc2nc(-c3ccc(OC)c(OC)c3)no2)c1 | 918 s |
| Cc1ccc(CNC(=O)Cn2c(=O)nc(N3CCC(C)CC3)c3ccccc32)cc1 | 860 s |
| COC(=O)c1cccc(NC(=O)C2CCN(c3cc(N4CCCC4)ncn3)CC2)c1 | 658 s |
| CN1C(=O)Cc2ccccc2C1C(=O)NCc1cc(F)ccc1F (stereo not given) | 716 s |
| Cn1c(N2CCCC(C(=O)NCCCN3CCN(c4ccccc4)CC3)C2)cc(=O)n(C)c1=O (stereo not given) | 600 s |
| O=C(NC1CC1)C1CCN(c2nc(-c3ccc(Cl)cc3)no2)CC1 | 859 s |
| CCc1onc(C)c1C1CCCN1C(=O)c1c(F)cccc1F (stereo not given) | 788 s |
| Cc1cc(C)cc(NS(=O)(=O)c2ccc3c(c2)C(=O)N(C)c2ncccc2O3)c1 | 1000 s |
| Cn1nc(CNC(=O)c2ccc(Cl)cc2)c2ccccc21 | 852 s |
| CCOc1ccc2c(n1)CCN(C(=O)Nc1ccc(CC)cc1)C2 | 943 s |
| Cc1ccc(NC(=O)Nc2ccc3nnc(C)n3c2)cc1F | 710 s |
| N#CC1=CN(c2ccc3c(c2)CCC3)c2ccccc2S1(=O)=O | 1010 s |
| CCSc1nnc(-c2nn(C)c3c2CN(C(=O)c2cc(C)cc(C)c2)CC3)n1C | 811 s |
| O=C(Cc1ccccc1)N1CCN(c2cc(-c3ccccc3)[nH]n2)CC1 | 774 s |
| COC(=O)c1cnc2nc(C)ccc2c1Nc1ccc(C)c(Cl)c1 | 733 s |
| CCC(C(=O)Nc1cc(-c2nc3ccccc3[nH]2)ccc1C)c1ccccc1 (stereo not given) | 755 s |
| N#Cc1ccc(-c2nc(-c3nn(CCN4CCOCC4)c4ccccc34)no2)cc1 | 692 s |
| CN1C(=O)c2cccnc2Sc2cc(NC(=O)C3CC3)ccc21 | 650 s |
| O=C(NCC1CCN(Cc2cccs2)CC1)C(=O)Nc1ccc(C(F)(F)F)cc1 | 603 s |
| O=C(CCC1CCN(S(=O)(=O)c2ccccc2)CC1)NC1CCCCCC1 | 958 s |
| CSC(=O)NC(=O)NC(=O)c1ccc([N+](=O)[O-])cc1 | 849 s |

| Structure (SMILES) | RP-LC retention time |
| --- | --- |
| Cc1sc2cc(C(=O)N3CCN(c4ccccc4F)CC3)[nH]c2c1CN1CCOCC1 | 704 s |
| CCn1c(=O)n(CC)c2cc(NC3=NS(=O)(=O)c4ccccc43)ccc21 | 702 s |
| Cc1cc(-n2nnc(C(=O)O)c2-c2ccncc2)ccc1F | 654 s |
| COc1ccc(CCNC(=O)NC(C)Cc2cccs2)cc1 (stereo not given) | 781 s |
| CCSc1nnc(NC(=O)c2cc(=O)c(OCc3cccc(OC)c3)cn2C)s1 | 685 s |
| COc1ccc(NC(=O)C2CC2)c2ccccc12 | 729 s |
| CCC(C)NC(=O)c1nc(Cn2c(=O)oc3ccc(Cl)cc32)no1 (stereo not given) | 922 s |
| Cc1nc(-c2ccc(S(=O)(=O)Nc3cccnc3)cc2)co1 | 640 s |
| O=c1c2sccc2n(Cc2nc(-c3cccc(C(F)(F)F)c3)no2)c(=O)n1-c1ccccc1F | 1090 s |
| Cc1ccc2cc(CCC(=O)NCCCN3CCCC(C)C3)c(=O)[nH]c2c1 (stereo not given) | 605 s |
| COc1cc(CNC(=O)CN2C(=O)C(C)(C)c3cc(C)ccc32)cc(OC)c1OC | 794 s |
| CCN(Cc1ccccc1)C(=O)Cn1cnc2onc(C)c2c1=O | 802 s |
| COC(=O)c1c(C)[nH]c(C(=O)N2CCC(CC(=O)NCc3ccccc3C)CC2)c1C | 749 s |
| O=C(NCc1cccs1)c1ccc2nc(CCc3ccccc3)oc2c1 | 979 s |
| COc1ccc(CNC(=O)C2CCN(c3cc(N4CCSCC4)ncn3)CC2)cc1 | 656 s |
| Cc1sc(C)c(S(=O)(=O)NC2CCCCC2)c1-c1cc(C(F)(F)F)on1 | 1200 s |
| CC(C)(C)C(=O)N1CCC(F)(c2nc(-c3ccncc3)no2)CC1 | 802 s |
| CCNC(=O)N1CCCC1c1cc(C)no1 (stereo not given) | 615 s |
| COCC(=O)Nc1ccc2c(c1)CN(S(C)(=O)=O)CCO2 | 641 s |
| Cc1cc(C)cc(NC(=O)CN2C(=O)C(C)(C)c3ccccc32)c1 | 968 s |
| NC[C@@H]1O[C@H](C23CC4CC(CC(C4)C2)C3)Cc2c1ccc(O)c2O | 787 s |
